Strand notation (5' to 3'): a small letter for the sugar, then the base; units joined by * are phosphorothioate-linked, units joined directly phosphodiester-linked; [ ] holds rarer units or linkages, { } end groups; capitals alone tell only the bases. e = 2'-O-(2-methoxyethyl) (MOE); k = constrained ethyl (cEt); [5mC] = 5-methylcytosine; d = 2'-deoxy (DNA); m = 2'-O-methyl
Tested on: Yap1 mRNA
Test: Dose-dependent inhibition of human Yap1 in SNU-449 cells (Example 9, RTS36584)
Type: cell-based
Settings: free uptake; for % UTC (Yap1 mRNA): approximately 48 hours; for IC50: linear regression on a log/linear plot
Description: Modified oligonucleotides described in the studies above were tested at various doses in SNU-449 cells. Cultured SNU-449 cells at a density of 10,000 cells per well were treated using free uptake with modified oligonucleotides diluted to concentrations described in the tables below. After approximately 48 hours, Yap1 mRNA levels were measured as previously described using the Human Yap1 primer-probe set RTS36584. Yap1 mRNA levels were normalized to total RNA content, as measured by RIBOGREEN®. Results are presented in the tables below as percent control of the amount of Yap1 mRNA relative to untreated control cells (% UTC). IC50s were calculated using a linear regression on a log/linear plot of the data in excel.

Row | Substance | % UTC (Yap1 mRNA) (31.3 nM) | % UTC (Yap1 mRNA) (125.0 nM) | % UTC (Yap1 mRNA) (500.0 nM) | % UTC (Yap1 mRNA) (2000.00 nM) | IC50
1 | 1198788 (kA*eA*kG*dT*dG*dT*dA*dT*dG*dT*d[5mC]*dA*eG*eA*kA*kG) [compound 1198788] | 64 % UTC | 30 % UTC | 7 % UTC | 2 % UTC | 100 nM
2 | 1198528 (kT*kA*dA*dA*dG*dT*dG*dT*dA*dT*dG*eT*k[5mC]*eA*kG*eA; antisense) [compound 1198528] | 87 % UTC | 54 % UTC | 30 % UTC | 11 % UTC | 200 nM
3 | 1198288 (kG*kA*kA*dA*dT*dT*dG*dT*d[5mC]*dT*d[5mC]*dA*kT*eG*k[5mC]*e[5mC]; antisense) [compound 1198288] | 77 % UTC | 43 % UTC | 17 % UTC | 7 % UTC | 100 nM
4 | 1197229 (kG*kG*kA*dA*mA*dT*dT*dG*dT*d[5mC]*dT*d[5mC]*dA*kT*kG*k[5mC]; antisense) [compound 1197229] | 54 % UTC | 32 % UTC | 16 % UTC | 7 % UTC | 30 nM
5 | 1198719 (kG*eG*kA*dA*dA*dT*dT*dG*dT*d[5mC]*dT*d[5mC]*eA*eT*kG*k[5mC]; antisense) [compound 1198719] | 67 % UTC | 30 % UTC | 9 % UTC | 3 % UTC | 100 nM
6 | 1198958 (kT*kG*dT*dA*dT*dG*dT*d[5mC]*dA*dG*dA*kA*dG*kA*dG*kT; antisense) [compound 1198958] | 68 % UTC | 39 % UTC | 16 % UTC | 5 % UTC | 100 nM
7 | 1198902 (kT*kT*dA*dG*dA*dG*dT*dA*dT*dG*dT*kG*dG*k[5mC]*dA*kA; antisense) [compound 1198902] | 74 % UTC | 46 % UTC | 22 % UTC | 10 % UTC | 100 nM
8 | 1198799 (k[5mC]*eT*kA*dA*dG*dT*dA*dA*dG*dG*dT*dT*eT*e[5mC]*k[5mC]*k[5mC]; antisense) [compound 1198799] | 62 % UTC | 35 % UTC | 13 % UTC | 4 % UTC | 100 nM
9 | 1198380 (kA*dG*dA*dG*dT*dA*dT*dG*dT*dG*dG*k[5mC]*eA*kA*eT*kA; antisense) [compound 1198380] | 72 % UTC | 55 % UTC | 27 % UTC | 11 % UTC | 100 nM
10 | 1198815 (kT*kA*dG*dA*dG*dT*dA*dT*dG*dT*dG*kG*e[5mC]*kA*eA*kT; antisense) [compound 1198815] | 84 % UTC | 64 % UTC | 34 % UTC | 15 % UTC | 200 nM
11 | 1198355 (kA*kA*kA*dG*dT*dG*dT*dA*dT*dG*dT*d[5mC]*kA*eG*kA*eA; antisense) [compound 1198355] | 63 % UTC | 34 % UTC | 10 % UTC | 4 % UTC | 100 nM
12 | 1198554 (kT*kT*kA*dG*dA*dG*dT*dA*dT*dG*dT*dG*kG*k[5mC]*kA*eA; antisense) [compound 1198554] | 72 % UTC | 46 % UTC | 22 % UTC | 8 % UTC | 100 nM
13 | 1198857 (kT*k[5mC]*dT*dT*dA*dT*dA*dT*dG*dG*dT*kT*eT*kT*eG*kT) [compound 1198857] | 78 % UTC | 44 % UTC | 13 % UTC | 4 % UTC | 100 nM
14 | 1198905 (kA*kT*dA*dT*dT*dA*dG*dA*dG*dT*dA*kT*dG*kT*dG*kG; antisense) [compound 1198905] | 75 % UTC | 43 % UTC | 21 % UTC | 6 % UTC | 100 nM
15 | 1198494 (kG*kT*dG*d[5mC]*dT*dT*dT*dG*dG*dA*dA*eG*kA*eT*k[5mC]*eT; antisense) [compound 1198494] | 59 % UTC | 37 % UTC | 24 % UTC | 13 % UTC | 100 nM
16 | 1198935 (kG*kA*dT*dT*dT*dA*dG*dG*dA*dT*dG*k[5mC]*dA*kT*dG*kG; antisense) [compound 1198935] | 50 % UTC | 46 % UTC | 23 % UTC | 11 % UTC | 40 nM

Row | Substance | % UTC (Yap1 mRNA) (31.3 nM) | % UTC (Yap1 mRNA) (125.0 nM) | % UTC (Yap1 mRNA) (500.0 nM) | % UTC (Yap1 mRNA) (2000.00 nM) | IC50
17 | 1198356 (kT*kA*kA*dA*dG*dT*dG*dT*dA*dT*dG*dT*k[5mC]*eA*kG*eA; antisense) [compound 1198356] | 85 % UTC | 30 % UTC | 7 % UTC | 1 % UTC | 100 nM
18 | 1198510 (k[5mC]*kT*d[5mC]*dT*dT*dA*dT*dA*dT*dG*dG*eT*kT*eT*kT*eG; antisense) [compound 1198510] | 71 % UTC | 44 % UTC | 18 % UTC | 6 % UTC | 100 nM
19 | 1197313 (kA*kG*kT*dG*mU*dA*dT*dG*dT*d[5mC]*dA*dG*dA*kA*kG*kA; antisense) [compound 1197313] | 71 % UTC | 38 % UTC | 16 % UTC | 6 % UTC | 100 nM
20 | 1198877 (kT*kT*dA*dA*dA*dG*dT*dG*dT*dA*dT*kG*eT*k[5mC]*eA*kG; antisense) [compound 1198877] | 62 % UTC | 32 % UTC | 13 % UTC | 5 % UTC | 50 nM
21 | 1200796 (kT*kT*kA*dG*dA*mG*dT*dA*dT*dG*dT*dG*dG*k[5mC]*kA*kA; antisense) [compound 1200796] | 69 % UTC | 47 % UTC | 25 % UTC | 12 % UTC | 100 nM
22 | 1198358 (kT*kT*kT*dA*dA*dA*dG*dT*dG*dT*dA*dT*kG*eT*k[5mC]*eA; antisense) [compound 1198358] | 68 % UTC | 39 % UTC | 20 % UTC | 8 % UTC | 100 nM
23 | 1198696 (kT*kG*dT*dA*dT*dG*dT*d[5mC]*dA*dG*dA*dA*kG*eA*kG*eT) [compound 1198696] | 58 % UTC | 31 % UTC | 11 % UTC | 2 % UTC | 40 nM
24 | 1198642 (kT*kA*dT*dT*dA*dG*dA*dG*dT*dA*dT*dG*kT*eG*kG*e[5mC]; antisense) [compound 1198642] | 79 % UTC | 48 % UTC | 15 % UTC | 4 % UTC | 100 nM
25 | 1198507 (kT*kT*dA*dT*dA*dT*dG*dG*dT*dT*dT*eT*kG*eT*kG*eT; antisense) [compound 1198507] | 83 % UTC | 57 % UTC | 29 % UTC | 13 % UTC | 200 nM
26 | 1197235 (kA*kT*kT*dA*mG*dA*dG*dT*dA*dT*dG*dT*dG*kG*k[5mC]*kA; antisense) [compound 1197235] | 64 % UTC | 36 % UTC | 16 % UTC | 5 % UTC | 100 nM
27 | 1198818 (kT*kA*dT*dT*dA*dG*dA*dG*dT*dA*dT*kG*eT*kG*eG*k[5mC]) [compound 1198818] | 68 % UTC | 33 % UTC | 15 % UTC | 5 % UTC | 100 nM
28 | 1198895 (kG*kG*dA*dA*dA*dT*dT*dG*dT*d[5mC]*dT*k[5mC]*dA*kT*dG*k[5mC]; antisense) [compound 1198895] | 62 % UTC | 37 % UTC | 16 % UTC | 9 % UTC | 100 nM
29 | 1198569 (CACTTTTACATTAGGA; modified gapmer, chemistry not fully specified) [compound 1198569] | 71 % UTC | 45 % UTC | 22 % UTC | 14 % UTC | 100 nM
30 | 1197217 (kT*kT*kA*dA*dA*dG*dT*dG*dT*dA*dT*dG*dT*k[5mC]*kA*kG) [compound 1197217] | 66 % UTC | 39 % UTC | 14 % UTC | 4 % UTC | 100 nM
31 | 1200789 (G_{ks}G_{ks}A_{ks}A_{ds}A_{ds}U_{ys}T_{ds}G_{ds}T_{ds}^{m}C_{ds}T_{ds}^{m}C_{ds}A_{ds}T_{ks}G_{ks}^{m}C_{k}; as printed in the source, key not given here) [compound 1200789] | 60 % UTC | 32 % UTC | 15 % UTC | 5 % UTC | 50 nM

Reference: patent US11214803B2, “Modulators of YAP1 expression” (Ionis Pharmaceuticals, Inc., priority 2019, dated 2022)
